# Source: patent US4939178A, “Use of avarol for the control of adult T-cell leukemia/lymphoma” (Merz + Co. GmbH & Co., priority 1986, dated 1990)
# Read-outs that look alike come from different tables or passages of the source.
# Key:
# ATL-3-I cells = experiment: Cell growth of ATL-3-I cells; format: cell-based; conditions: two days, control 13.2
# Text: (§1) For this, the MT-2, ATL-3I, and ATL-1K cell lines were employed. These cell lines are described by Hashino, H., et al., Proc. Nat. Academy Science U.S.A. 80, 6061-6065 (1983) and by Miyoshi, J., et al., Nature 294, 770-771 (1981). All these cell lines contain the HTLV-provirus, and among these cell lines primarily the lines MT-2 and ATL-3I express also the retrovirus antigens and also produce the HTLV-I virus.
# (§2) Cell culture conditions were employed according to those described by H. Hoshino, et al., Proc. Nat. Acad. Sci. (U.S.A.) 80, 1983, 7337-7341.
# (§3) ATL-3-I, MT-2, and ATL-1K cells were seeded into Petri dishes in a concentration of 3×10^3 cells/cm^2 in a culture medium containing 20% of calf serum. After incubation for two days, the density of the cells amounted to: […]: 13.2×10^3 cells/cm^2; MT-2: 12.4×10^3 cells/cm^2; ATL-1K: 15.7×10^3 cells/cm^2. These values formed the control values.
# (§4) Thereupon samples of these cells were treated for two days with different concentrations of avarol.
# MT-2 cells = experiment: Cell growth of MT-2 cells; format: cell-based; conditions: two days, control 12.4
# Text: as §1, §2, §3, §4
# ATL-1K cells = experiment: Cell growth of ATL-1K cells; format: cell-based; conditions: two days, control 15.7
# Text: as §1, §2, §3, §4
# [1] = test system: retroviral (HTLV-I) antigen in ATL-3-I cells; experiment: microbe, parasite or virus in culture; format: cell-based; conditions: Primate T-lymphotropic virus 1, read-out: Expression of retroviral antigen (in %)
# [2] = test system: male NMRI mice immunized with SRBC; experiment: Jerne plaque test, in vivo immunoglobulin production; conditions: avarol 30 mg/kg i.p., from 0 to +4
# Method: The plaque test of Jerne and Nordin (Science 140: 405-406, 1963) was used with the modification given by Cunningham and Szenberg (Immunolog. 14: 599-601; 1968). Briefly, 8 male NMRI mice per group (20-22 g) were immunized on day 0 by i.p. injection of 5×10^8 SRBC in 0.5 ml saline. Treatment with avarol was done i.p. either from day 0 to day +4 or from day -4 to day 0. One hour after the last drug administration, the animals were killed by a blow on the head and bled. The spleens were removed and a single cell suspension was prepared by teasing the pooled spleens through a 120μm mesh sieve. After lysing the erythrocytes by 0.15M NH4 Cl, the cells were washed twice in Hank's balanced salt solution containing 29 ml of 7.5% NaHCO3 and 10 ml of 1M HEPES buffer solution per one liter. The cells were resuspended in 2 ml per spleen. Six Cunningham chambers per group were filled with a mixture of 0.5 ml of a suitable dilution of spleen cells (generally 1:100), 0.5 ml of a suspension of SRBC (10^9 /ml) and 125 μl of normal guinea pig complement. After 90-120 min of incubation at 37° C., the number of plaques was counted. Plaques per spleen or per 10^6 spleen cells were calculated.
# The pooled blood of 8 mice was centrifuged to obtain the serum. IgM and IgG titers were measured with the mercaptoethanol method (Hudson, L. and Hay, F. C. Practical Immunology, Blackwell Sci., Oxford; 1983).
# male NMRI mice [3] = experiment: Delayed-type hypersensitivity to sheep red blood cells; format: in vivo
# Method: Reaction to sheep red blood cells (SRBC): DTH was produced according to the method of Lagrange et al. (J. Exp. Med. 139: 528-542; 1974) and Liew (Eur. J. Immunol. 7, 714-718; 1977). Male NMRI mice (20-23 g, 10 animals/group) were immunized with 10^8 SRBC/40 μl into one foot pad (day 0). Four days later 10^9 SRBC/40 μl were injected into the other foot pad. After 24 hours, paw size was measured with a dial gauge caliper Odi-Test OOT (H. C. Kroeplin, Schluchtern, Germany). Avarol (in 0.15% [w/v] methylcellulose) was administered daily i.p. either from day -2 to +1 or from day +2 to +4. The level of DTH was expressed as foot pad increase, determined after 24 hrs; and it is given in mm. Non-treated groups were injected i.p. with methylcellulose only. Treated groups were compared with the controls using the U-test of Wilcoxon et al. (Sachs, L. Angewandte Statistik, Springer-Verlag, Berlin; 1984).
# male NMRI mice [4] = experiment: Contact allergy to oxazolone; format: in vivo; conditions: 3-30 mg/kg i.p., day -1 to +2 or day +6 to +8; P>0.05
# male Sprague-Dawley rats = experiment: Antibody mediated hypersensitivity, modified active Arthus reaction; format: in vivo
# Method: A modified active Arthus reaction was performed as described (Titus et al., J. Immunol. Methods 45: 65-78; 1981). Male Sprague-Dawley rats (8/group) weighing 120 g were immunized by injecting into the tail base 0.5 ml of a suspension of 4.4 ml pertussis vaccine (Behringwerke, Marburg) in 65.6 ml of 0.9% saline plus 0.7 g ovalbumin (3×cryst.) in 100 ml paraffin oil. Three weeks after immunization 0.1 ml of 0.03% ovalbumin solution were injected into a hind paw and the paw volume was measured with a water plethysmometer (Rhema) immediately thereafter and again after 4 hours. The animals were treated i.p. with daily doses from 3-30 mg/kg of avarol (in 0.15% [w/v] methylcellulose) according to the following schedules: (i) day -1 to +2, (ii) day +18 to +21 or (iii) twice 24 hours and 30 minutes before challenge (day 0 represents the day of immunization). The controls received methylcellulose only. Values are compared with a control group using Student's-t-test (L. Sachs. Angewandte Statistik, Springer-Verlag, Berlin; 1984).
# [5] = test system: macrophage-containing and macrophage-depleted lymphocyte cultures; experiment: [3H]-dThd incorporation in lymphocyte cultures of pretreated mice; conditions: pretreatment of mice with avarol, lymphocyte cultures in vitro
# [6] = format: in vivo, rats
# [7] = Organ distribution of tritium labelled avarol; format: in vivo, rats
# Method: The organ distribution was determined by the same method using tritium labelled Avarol. The determinations were performed 24 hours after termination of the i.v. application. These concentrations were determined on the basis of radioactivity. Moreover, the chemical nature of the radioactive product was identified by high-pressure liquid chromatography and found to consist of over 90% of Avarol. In addition, the biological activity of the compound in the blood was determined after extraction with ethyl acetate and estimated in the […] cell system in vitro (Muller, W. E. G. et al.; Comp. Biochem. Physiol. 80C, 47-52; 1985). Using this system, the biological activity of the compound, present in the blood, was determined and converted on a gram basis. Using this approach the concentration in the blood was only 5-15% lower than that determined on the basis of radioactivity.
# [8] = test system: peripheral human lymphocytes (buffy coat cells); experiment: Interferon-gamma production by lymphocytes (EIA); format: cell-based
# Method: Effector cells: Buffy coat cells were prepared by centrifugation on Ficoll-Plaque gradient and washed two times. Subsequently the cells were divided and adjusted to a concentration of 5×1,000,000 cells/ml.
# Interferon measurement: Levels of Interferon were defined by an Enzymeimmunoassay (EIA). Interferon gamma: 96 well flat bottom plates (Greiner, Nuertingen) were coated with a monoclonal antibody recognizing Interferon gamma. 200 μl of the supernatant sample were added per well together with Interferon gamma-peroxidase coupled (50 μl), consisting of the same antibody as used for coating. […] The enzymatic reaction is completed by a preparation containing hydrogen peroxide substrate. The reaction is stopped within 15 minutes by 100 μl of sulfuric acid per well. The amount of Interferon is defined by comparing the extinction of the test sample with a standard curve produced by known values of Interferon gamma.
# [9] = test system: T-cell derived leukemia cells; conditions: cited from earlier work
structure (smiles),measurement,setting,value
"CC1=CCC[C@H]2[C@](C)(Cc3cc(O)ccc3O)[C@@H](C)CC[C@]12C [Avarol, 2-[(1R)-1,2,3,4,4a,7,8,8aα-octahydro-1β,2β,4aβ,5-tetramethyl-1-naphthylmethyl]-1,4-benzenediol]",Cell concentration ATL-3-I,ATL-3-I cells; drug 1.0 μg/ml,9.4 × 10^3 /cm^2
same,Cell concentration ATL-3-I,ATL-3-I cells; drug 5.0 μg/ml,8.7 × 10^3 /cm^2
same,Cell concentration MT-2,MT-2 cells; drug 1.0 μg/ml,8.1 × 10^3 /cm^2
same,Cell concentration MT-2,MT-2 cells; drug 5.0 μg/ml,7.9 × 10^3 /cm^2
same,Cell concentration ATL-1K,ATL-1K cells; drug 1.0 μg/ml,13.4 × 10^3 /cm^2
same,Cell concentration ATL-1K,ATL-1K cells; drug 5.0 μg/ml,10.3 × 10^3 /cm^2
same,activity at 1 µg/mL,[1],82%
same,activity at 5 µg/mL,[1],74%
same,Cell/spleen,[2],1.2e+08 cells/spleen
same,influence on DTH to SRBC,"male NMRI mice [3]; i.p. day +2 to +4 after immunization, doses higher than 10 mg/kg",weak but significant immunosuppressive effect
same,influence on DTH to SRBC,"male NMRI mice [3]; i.p. day -2 to +1, up to daily doses of 30 mg/kg",no significant immunosuppressive influence
same,influence on DTH oxazolone,male NMRI mice [4],did not influence significantly
same,suppression of the Arthus reaction,"male Sprague-Dawley rats; 30 mg/kg, 24 hours and 30 minutes before challenge, P>0.05",not significant
same,suppression of the Arthus reaction,"male Sprague-Dawley rats; 3-30 mg/kg i.p., day -1 to +2, day +18 to +21 or immediately before challenge",no significant suppression
same,[3H]-dThd incorporation rate,[5],higher
same,Percentage of Radioactivity in Blood,"[6]; 10 mg/kg i.v., 1 hour",96%
same,Percentage of Radioactivity in Blood,"[6]; 10 mg/kg i.v., 6 hours",88%
same,Percentage of Radioactivity in Blood,"[6]; 10 mg/kg i.v., 12 hours",72%
same,Percentage of Radioactivity in Blood,"[6]; 10 mg/kg i.v., 24 hours",43%
same,Percentage of Radioactivity in Blood,"[6]; 10 mg/kg i.v., 48 hours",26%
same,Percentage of Radioactivity in Blood,"[6]; 20 mg/kg i.v., 1 hour",92%
same,Percentage of Radioactivity in Blood,"[6]; 20 mg/kg i.v., 12 hours",75%
same,Percentage of Radioactivity in Blood,"[6]; 20 mg/kg i.v., 24 hours",39%
same,Percentage of Radioactivity in Blood,"[6]; 20 mg/kg i.v., 48 hours",21%
same,Percentage of Radioactivity in Blood,"[6]; rat, in vivo",83
same,"Concentration of Avarol, Skin","[7]; 10 mg/kg i.v., 24 hours",0.6 microgram of Avarol per gram o
same,"Concentration of Avarol, Brain","[7]; 20 mg/kg i.v., 24 hours",0.64 microgram of Avarol per gram o
same,blood-brain barrier penetration,[7]; rats,penetrates the blood-brain barrier
same,Titer of Interferon-gamma produced by lymphocytes,"[8]; avarol 1.0 μg/ml, 48 hours",52 Units/ml of supernatant
same,optimal dose for Interferon gamma induction in vitro,[8]; buffy coat cells,0.5 µg/mL
same,lymphoma cell growth inhibited by 50%,[9],0.3 to 0.4 µg/mL
